Experimental data from patent US9969744B2, “Compounds for use in cognition improvement” (FUNDACIÓN PARA LA INVESTIGACIÓN MÉDICA APLICADA, priority 2014, dated 2018).

How the values were obtained:
[1] = target: T1, PDE5A1 (Homo sapiens, UniProt O76074); assay: PDE enzyme activity assay (HTRF cGMP), PDE5A; format: biochemical; details: recombinant enzyme; read-out: PDE5A1 inhibition (IC50)
T1 construct: they are full-length with N-terminal GST tag; GST (N); purchased BPS Biosciences 60050; host or cells: baculovirus infected Sf9 cells

[2] = test system: acetylated histone 3 at Lys9 (AcH3K9); assay: HDAC activity using SHSY-5Y cell line (Western blot, histone 3 acetylation); format: cell-based, human; design: key: basal x1 means no increment (+); basal x1.4≤(++)<basal x2; basal x2≤(+++)<basal x3; basal x3≤(++++); N.E. means No Effect; details: SHSY-5Y cells, 24 hours
Procedure: HDAC inhibition leads to the corresponding functional response, increase in AcH3 level. Therefore, the cellular assay to conclude HDAC activity was assessed by Western blot analysis using specific antibodies against acetylated histone 3 at Lys9 (AcH3K9). Cell cultures were treated at 100 nM, 500 nM, 1 μM and/or 5 μM with compounds of the invention or known PDE inhibitors during 24 hours and, Table 1 (below) describes the functional activity: histone 3 acetylation level (AcH3) vs basal (no treatment).
A human neuroblastoma cell line (SHSY-5Y) was used. Cell line was obtained from ATCC (CRL-2266) and cultured in 35 mm plates (Becton Dickinson, NJ).
The cells were grown to 90% confluence at 37° C. in an atmosphere of 5% CO2 and in Dulbecco's modified Eagle's medium supplemented with Glutamax (Gibco, Invitrogen, CA), 100 units/ml penicillin/streptomycin, 1×MEM nonessential amino acids and 10% fetal bovine serum (Gibco, Invitrogen, CA).
Cells were collected and sonicated in a buffer containing a cold lysis buffer with protease inhibitors (0.2 M NaCl, 0.1 M HEPES (4-(2-hydroxyethyl)-1-piperazineethanesulfonic acid), 10% glycerol, 200 mM NaF, 2 mM Na4P2O7, 5 mM EDTA (ethylenediaminetetraacetic acid), 1 mM EGTA (ethylene glycol tetraacetic acid), 2 mM DTT (dithiothreitol), 0.5 mM PMSF (phenylmethylsulfonyl fluoride), 1 mM Na3VO4 and Complete Protease Inhibitor Cocktail, Roche Diagnostics), centrifuged at 14,000×g 4° C. for 20 min and the supernatant was aliquoted and stored at −80° C. Total protein concentrations were determined using the BioRad Bradford protein assay (BioRad Laboratories).
Protein samples were mixed with Laemmli sample buffer, resolved onto Sodium Dodecyl Sulfate (SDS)-polyacrylamide gels and transferred to nitrocellulose membrane. The membranes were blocked with 5% milk, 0.05% Tween-20 in PBS (Phosphate-Buffered Saline) or TBS (Tris-Buffered Saline) followed by overnight incubation with the following primary antibodies: rabbit polyclonal anti-acetylated Histone 3 (acetyl K9) (Cell Signalling Technology), rabbit polyclonal anti-total Histone 3 (Millipore), in the corresponding buffer. All the antibodies were used at 1:1000 dilution except the mouse monoclonal anti-β-actin which was used at 1:50.000. Following two washes in TBS/Tween20 and one wash in TBS alone, immunolabeled protein bands were detected by using HRP-conjugated anti-rabbit or anti-mouse antibody (Santa Cruz Biotechnology; dilution 1:5.000) following an enhanced chemiluminescence system (ECL, GE Healthcare Bioscience, Buckinghamshire, UK), and autoradiographic exposure to HyperfilmtECL (GE Healthcare Bioscience). Quantity One™ software v.4.6.3 (Bio-Rad) was used for quantification.

[3] = target: T2, PDE9A (Homo sapiens, UniProt O76083); assay: PDE enzyme activity assay (HTRF cGMP), PDE9A; format: biochemical; details: recombinant enzyme; read-out: PDE9A inhibition (IC50)
T2 construct: they are full-length with N-terminal GST tag; GST (N); purchased BPS Biosciences 60090; host or cells: baculovirus infected Sf9 cells
T2 sequence (O76083 1-533 isoform O76083-2): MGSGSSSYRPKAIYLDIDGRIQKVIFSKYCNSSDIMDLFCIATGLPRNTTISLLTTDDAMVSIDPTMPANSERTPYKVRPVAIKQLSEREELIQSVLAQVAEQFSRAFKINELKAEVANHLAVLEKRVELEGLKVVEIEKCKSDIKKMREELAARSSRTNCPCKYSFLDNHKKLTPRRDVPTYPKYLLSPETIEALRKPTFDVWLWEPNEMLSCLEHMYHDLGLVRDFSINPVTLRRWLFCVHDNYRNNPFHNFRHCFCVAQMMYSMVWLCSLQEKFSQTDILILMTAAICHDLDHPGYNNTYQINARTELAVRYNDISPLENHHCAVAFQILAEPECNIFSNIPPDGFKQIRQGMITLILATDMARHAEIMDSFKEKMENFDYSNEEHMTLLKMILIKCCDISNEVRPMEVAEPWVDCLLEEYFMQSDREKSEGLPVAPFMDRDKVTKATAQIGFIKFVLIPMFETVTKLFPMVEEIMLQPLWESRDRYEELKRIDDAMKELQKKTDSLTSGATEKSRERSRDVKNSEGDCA

Structure (SMILES)	IC50 [1] [µM]	IC50 [3] [µM]	AcH3: increment in Histone 3 acetylation level vs basal ([2]; compound concentration 1 μM)	AcH3: increment in Histone 3 acetylation level vs basal ([2]; compound concentration 5 μM)
CCCc1nn(C)c2c(=O)[nH]c(-c3cc(CC4CC(C(=O)Nc5ccccc5N)C4)ccc3OCC)nc12 (racemic) [Example 1-04, N-(2-aminophenyl)-3-[[4-ethoxy-3-(1-methyl-7-oxo-3-propyl-6H-pyrazolo[4,3-d]pyrimidin-5-yl)phenyl]methyl]cyclobutanecarboxamide]	0.01 to 1		++++ (basal x3≤(++++))	
CCCc1nn(C)c2c(=O)[nH]c(-c3cc(C4CCC(C(=O)Nc5ccccc5N)CC4)ccc3OCC)nc12 (racemic) [Example 1-05, N-(2-aminophenyl)-4-[4-ethoxy-3-(1-methyl-7-oxo-3-propyl-6H-pyrazolo[4,3-d]pyrimidin-5-yl)phenyl]cyclohexanecarboxamide]	0.01 to 1		+++ (basal x2≤(+++)<basal x3)	
CCCc1nn(C)c2c(=O)[nH]c(-c3cc(S(=O)(=O)N4CCN(c5ncc(C(=O)Nc6ccccc6N)cn5)CC4)ccc3OCC)nc12 [Example 1-01, N-(2-aminophenyl)-2-[4-[4-ethoxy-3-(1-methyl-7-oxo-3-propyl-6H-pyrazolo[4,3-d]pyrimidin-5-yl)phenyl]sulfonylpiperazin-1-yl]pyrimidine-5-carboxamide]	0.01 to 1		+++ (basal x2≤(+++)<basal x3)	
CCCc1nn(C)c2c(=O)[nH]c(-c3cc(S(=O)(=O)NC4CCN(c5ncc(C(=O)Nc6ccccc6N)cn5)CC4)ccc3OCC)nc12 [Example 1-02]	0.01 to 1		+++ (basal x2≤(+++)<basal x3)	
CCCc1nn(C)c2c(=O)[nH]c(-c3cc(S(=O)(=O)NCc4ccc(C(=O)Nc5ccccc5N)cc4)ccc3OCC)nc12 [Example 1-03]	0.01 to 1		++++ (basal x3≤(++++))	
CCCc1nn(C)c2c(=O)[nH]c(-c3cc(C4CCC(C(=O)Nc5ccccc5N)CC4)ccc3OCC)nc12 (centres unmarked) [Example 1-06, N-(2-aminophenyl)-4-[4-ethoxy-3-(1-methyl-7-oxo-3-propyl-6H-pyrazolo[4,3-d]pyrimidin-5-yl)phenyl]cyclohexanecarboxamide]	0.01 to 1		+++ (basal x2≤(+++)<basal x3)	
CCCc1nn(C)c2c(=O)[nH]c(-c3cc(Cc4ccc(C(=O)Nc5ccccc5N)s4)ccc3OCC)nc12 [Example 1-08]	0.01 to 1		++++ (basal x3≤(++++))	
CCCc1nn(C)c2c(=O)[nH]c(-c3cc(Cc4ccc(C(=O)Nc5cc(-c6cccs6)ccc5N)cc4)ccc3OCC)nc12 [Example 1-13, N-[2-amino-5-(2-thienyl)phenyl]-4-[[4-ethoxy-3-(1-methyl-7-oxo-3-propyl-6H-pyrazolo[4,3-d]pyrimidin-5-yl)phenyl]methyl]benzamide]	1 to 10		++ (basal x1.4≤(++)<basal x2)	
CCCc1nn(C)c2c(=O)[nH]c(-c3cc(CC(=O)Nc4ccccn4)ccc3OCC)nc12 [Example 1-15, 2-[4-ethoxy-3-(1-methyl-7-oxo-3-propyl-6H-pyrazolo[4,3-d]pyrimidin-5-yl)phenyl]-N-(2-pyridyl)acetamide]	0.01 to 1		++ (basal x1.4≤(++)<basal x2)	
CCCc1nn(C)c2c(=O)[nH]c(-c3cc(Cc4ccc(C(=O)N5CCNC(=O)C5)cc4)ccc3OCC)nc12 [Example 1-19]	0.01 to 1		++ (basal x1.4≤(++)<basal x2)	
CCCc1nn(C)c2c(=O)[nH]c(-c3cc(Cc4ccc(C(=O)Nc5cscc5N)cc4)ccc3OCC)nc12 [Example 1-20]	1 to 10		++ (basal x1.4≤(++)<basal x2)	
CCCc1nn(C)c2c(=O)[nH]c(-c3cc(S(=O)(=O)N4CCN(C)CC4)ccc3OCC)nc12 [Sildenafil, reference compound]			N.E.	

More lines, main results first:

IC50 [1] [µM]	IC50 [3] [µM]	Structure (SMILES)	AcH3: increment in Histone 3 acetylation level vs basal ([2]; compound concentration 1 μM)	AcH3: increment in Histone 3 acetylation level vs basal ([2]; compound concentration 5 μM)
< 0.01		CCCc1nc(C)c2c(=O)[nH]c(-c3cc(CC4CC(C(=O)Nc5ccccc5N)C4)ccc3OCC)nn12 (racemic) [Example 2-04, N-(2-aminophenyl)-3-[[4-ethoxy-3-(5-methyl-4-oxo-7-propyl-3H-imidazo[5,1-f][1,2,4]triazin-2-yl)phenyl]methyl]cyclobutanecarboxamide]	++++ (basal x3≤(++++))	
	0.01 to 1	C[C@@H]1CN(Cc2ccc(C(=O)Nc3ccccc3N)cc2)C[C@H]1c1nc2c(cnn2C2CCCC2)c(=O)[nH]1 (racemic) [Example 3-01, N-(2-aminophenyl)-4-[[(3S,4S)-3-(1-cyclopentyl-4-oxo-5H-pyrazolo[3,4-d]pyrimidin-6-yl)-4-methyl-pyrrolidin-1-yl]methyl] benzamide]	++ (basal x1.4≤(++)<basal x2)	
1 to 10		Nc1ccccc1NC(=O)c1cnc(N2CCC(CN3CC(=O)N4C(Cc5c([nH]c6ccccc56)C4c4ccc5c(c4)OCO5)C3=O)CC2)nc1 (racemic) [Example 4-01, N-(2-aminophenyl)-2-(4-((6-(benzo[d][1,3]dioxol-5-yl)-1,4-dioxo-3,4,6,7,12,12a-hexahydropyrazino[1′,2′:1,6]pyrido[3,4-b]indol-2(1H)-yl)methyl)piperidin-1-yl)pyrimidine-5-carboxamide]		++ (basal x1.4≤(++)<basal x2)
< 0.01		CCCc1nc(C)c2c(=O)[nH]c(-c3cc(S(=O)(=O)N4CCN(c5ncc(C(=O)Nc6ccccc6N)cn5)CC4)ccc3OCC)nn12 [Example 2-02, N-(2-aminophenyl)-2-[4-[4-ethoxy-3-(5-methyl-4-oxo-7-propyl-3H-imidazo[5,1-f][1,2,4]triazin-2-yl)phenyl]sulfonylpiperazin-1-yl]pyrimidine-5-carboxamide]	++++ (basal x3≤(++++))	
< 0.01		CCCc1nc(C)c2c(=O)[nH]c(-c3cc(S(=O)(=O)NC4CCN(c5ncc(C(=O)Nc6ccccc6N)cn5)CC4)ccc3OCC)nn12 [Example 2-03]	++ (basal x1.4≤(++)<basal x2)	
0.01 to 1		CCCc1nc(C)c2c(=O)[nH]c(-c3cc(Cc4ccc(C(=O)Nc5cscc5N)cc4)ccc3OCC)nn12 [Example 2-07, N-(4-amino-3-thienyl)-4-[[4-ethoxy-3-(5-methyl-4-oxo-7-propyl-3H-imidazo[5,1-f][1,2,4]triazin-2-yl)phenyl]methyl]benzamide]	++ (basal x1.4≤(++)<basal x2)	
